These results are taken from ChEMBL document CHEMBL1201862, “PubChem BioAssay data set” (2004).

Assay [1] can be described thus: inhibitors of SNCA 5'UTR-driven reporter translation, confirmation, H4 neuroglioma cells, luminescence (AID 1988). Format: functional, cell-based.
A short description of assay [2]: Luminescence Cell-Based Dose Response HTS to Identify Inhibitors of 5'UTR Stem-Loop Driven Prion Protein mRNA Translation in H4 Neuroglioblastoma Cells. [Related pubchem assays: 1827 (Project Summary), 1813 (Primary HTS)]. The format is functional.
For assay [3], the target named is T1, Calpain-2 catalytic subunit (Sus scrofa, UniProt P43367).
T1 sequence (P43367 whole entry): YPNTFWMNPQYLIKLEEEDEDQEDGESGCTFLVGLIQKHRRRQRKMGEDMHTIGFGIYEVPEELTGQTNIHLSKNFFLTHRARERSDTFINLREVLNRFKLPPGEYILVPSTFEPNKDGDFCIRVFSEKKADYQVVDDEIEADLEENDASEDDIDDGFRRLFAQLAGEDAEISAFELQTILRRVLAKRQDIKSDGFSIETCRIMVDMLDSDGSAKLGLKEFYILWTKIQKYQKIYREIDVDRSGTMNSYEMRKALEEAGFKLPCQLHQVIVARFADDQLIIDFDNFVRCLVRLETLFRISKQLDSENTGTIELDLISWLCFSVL
As to the kind of experiment: pig calpain II inhibitor potency, dose response, biochemical, fluorogenic peptide substrate (AID 1420). Format: functional.

The test system of assay [4] is BJ. Briefly: cytotoxicity toward BJ-TERT-LT-ST fibroblasts, dose response, cell-based, RAS-independent, luminescence (AID 1935).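 Further: BJ fibroblasts immortalized with TERT plus LT and ST oncogenes.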 Particulars: Homo sapiens. Format: functional.
Assay [5] addresses T2, Replicative DNA helicase DnaB (Mycobacterium tuberculosis, UniProt P9WMR3).
T2 sequence (P9WMR3 whole entry): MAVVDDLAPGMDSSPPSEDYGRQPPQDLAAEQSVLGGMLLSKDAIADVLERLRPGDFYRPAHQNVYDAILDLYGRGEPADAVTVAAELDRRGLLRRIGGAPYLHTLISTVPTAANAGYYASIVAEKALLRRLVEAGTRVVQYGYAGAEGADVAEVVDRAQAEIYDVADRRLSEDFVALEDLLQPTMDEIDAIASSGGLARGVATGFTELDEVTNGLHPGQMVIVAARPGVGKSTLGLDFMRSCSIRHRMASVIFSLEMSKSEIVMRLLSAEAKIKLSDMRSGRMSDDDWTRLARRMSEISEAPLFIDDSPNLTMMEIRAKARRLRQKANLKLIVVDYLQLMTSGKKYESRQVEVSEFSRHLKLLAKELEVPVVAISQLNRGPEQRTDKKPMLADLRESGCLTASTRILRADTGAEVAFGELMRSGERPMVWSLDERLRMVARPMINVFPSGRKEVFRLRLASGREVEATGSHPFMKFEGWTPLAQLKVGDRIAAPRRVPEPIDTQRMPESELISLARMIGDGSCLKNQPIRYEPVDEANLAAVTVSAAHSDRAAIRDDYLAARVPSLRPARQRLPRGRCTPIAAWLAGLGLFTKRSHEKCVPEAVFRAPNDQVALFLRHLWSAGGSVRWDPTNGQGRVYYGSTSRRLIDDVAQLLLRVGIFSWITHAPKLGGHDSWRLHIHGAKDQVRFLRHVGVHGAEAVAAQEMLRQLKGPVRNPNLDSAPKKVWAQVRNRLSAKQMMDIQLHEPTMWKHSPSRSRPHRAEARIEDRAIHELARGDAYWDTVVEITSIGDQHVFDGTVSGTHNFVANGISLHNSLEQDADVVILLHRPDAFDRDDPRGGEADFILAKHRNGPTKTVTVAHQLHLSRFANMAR
Briefly: DnaB intein splicing inhibitors, dose response, biochemical, cell-free fluorescence (AID 449749). Format: functional.

Assay [6] deals with BJ. Briefly: cytotoxicity toward BJ-TERT fibroblasts, dose response, cell-based, RAS-independent, luminescence (AID 1933). Format: functional. Particulars: Homo sapiens.
Assay [7] concerns BJ. As to the kind of experiment: cells. The format is functional, cell-based. As to conditions: Homo sapiens.
Assay [8] can be described thus: cytotoxicity toward DRD oncogenic fibroblasts, dose response, cell-based, non-viral oncogenic, luminescence (AID 1934). The format is functional. As to conditions: Homo sapiens.
Another assay addresses T3, Protein RecA (Mycobacterium tuberculosis, UniProt P9WHJ3).
T3 sequence (P9WHJ3 whole entry): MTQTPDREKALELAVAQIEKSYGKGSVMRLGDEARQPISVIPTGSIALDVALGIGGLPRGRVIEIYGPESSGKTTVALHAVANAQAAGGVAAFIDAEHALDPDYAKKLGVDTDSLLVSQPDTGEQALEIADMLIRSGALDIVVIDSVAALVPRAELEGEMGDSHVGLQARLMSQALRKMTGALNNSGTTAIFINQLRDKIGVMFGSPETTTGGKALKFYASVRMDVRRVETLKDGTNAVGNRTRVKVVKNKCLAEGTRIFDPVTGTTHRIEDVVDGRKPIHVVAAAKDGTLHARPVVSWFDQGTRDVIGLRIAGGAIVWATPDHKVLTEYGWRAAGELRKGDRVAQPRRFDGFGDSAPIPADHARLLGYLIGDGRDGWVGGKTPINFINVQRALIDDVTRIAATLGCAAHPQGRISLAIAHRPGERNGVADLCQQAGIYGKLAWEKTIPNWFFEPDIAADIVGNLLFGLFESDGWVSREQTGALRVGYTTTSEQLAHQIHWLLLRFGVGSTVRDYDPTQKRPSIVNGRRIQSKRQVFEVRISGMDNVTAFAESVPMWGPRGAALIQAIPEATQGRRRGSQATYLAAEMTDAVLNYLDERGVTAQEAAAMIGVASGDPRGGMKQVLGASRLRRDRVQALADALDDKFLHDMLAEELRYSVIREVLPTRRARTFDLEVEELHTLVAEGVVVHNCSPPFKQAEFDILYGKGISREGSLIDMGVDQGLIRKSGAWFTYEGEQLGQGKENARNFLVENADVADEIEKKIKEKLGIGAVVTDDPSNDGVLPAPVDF
Briefly: Fluorescence Cell-Free Homogeneous Dose Retest to Identify Inhibitors of RecA-Intein Splicing Activity. [Related pubchem assays (depositor defined):AID2097, AID2223, AID489010, AID492950]. Format: functional.

For assay [9], the target named is Luciferin 4-monooxygenase (Photinus pyralis, UniProt P08659). Briefly: firefly luciferase enzyme inhibitors, dose response, biochemical, luminescence (AID 1891).
Assay [10] in a line: Luminescence Cell-Based Dose Confirmation HTS to Identify Inhibitors of Platelet Dense Granule Release. [Related pubchem assays: 1663 (Primary HTS), 1678 (Summary of Project)]. The format is functional.
The target in assay [11] is T4, Heat shock factor protein 1 (Mus musculus, UniProt P38532).
T4 sequence (P38532 whole entry): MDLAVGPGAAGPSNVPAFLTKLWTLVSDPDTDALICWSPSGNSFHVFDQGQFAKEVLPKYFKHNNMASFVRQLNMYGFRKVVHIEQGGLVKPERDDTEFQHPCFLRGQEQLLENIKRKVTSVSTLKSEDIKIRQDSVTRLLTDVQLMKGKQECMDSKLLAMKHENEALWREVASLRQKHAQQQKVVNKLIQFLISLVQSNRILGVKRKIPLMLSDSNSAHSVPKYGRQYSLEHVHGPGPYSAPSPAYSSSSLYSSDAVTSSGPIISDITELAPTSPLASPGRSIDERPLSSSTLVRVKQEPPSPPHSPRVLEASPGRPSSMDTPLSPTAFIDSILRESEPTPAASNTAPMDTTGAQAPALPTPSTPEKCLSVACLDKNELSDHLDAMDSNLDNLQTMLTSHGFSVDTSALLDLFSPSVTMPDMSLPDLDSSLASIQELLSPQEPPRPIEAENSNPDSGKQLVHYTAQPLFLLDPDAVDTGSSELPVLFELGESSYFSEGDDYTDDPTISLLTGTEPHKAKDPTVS
Briefly: inhibition of MG132-induced HSE-luciferase signal, confirmation, cell-based, NIH3T3, luminescence, dose retest (AID 2382).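 Further: NIH3T3 fibroblasts with HSF1-driven luciferase reporter stressed by proteasome inhibitor MG132; luminescence from HSF1-driven luciferase expression after 8 hours of MG132 stress.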 The format is functional.

Assay [12] is described as follows: inhibitors of firefly luciferase expression or activity, dose response, H4 neuroglioma cells, luminescence (AID 1990). Format: functional, cell-based.
The next assay deals with T5, Cytochrome P450 1A2 (Homo sapiens, UniProt P05177).
T5 sequence (P05177 whole entry): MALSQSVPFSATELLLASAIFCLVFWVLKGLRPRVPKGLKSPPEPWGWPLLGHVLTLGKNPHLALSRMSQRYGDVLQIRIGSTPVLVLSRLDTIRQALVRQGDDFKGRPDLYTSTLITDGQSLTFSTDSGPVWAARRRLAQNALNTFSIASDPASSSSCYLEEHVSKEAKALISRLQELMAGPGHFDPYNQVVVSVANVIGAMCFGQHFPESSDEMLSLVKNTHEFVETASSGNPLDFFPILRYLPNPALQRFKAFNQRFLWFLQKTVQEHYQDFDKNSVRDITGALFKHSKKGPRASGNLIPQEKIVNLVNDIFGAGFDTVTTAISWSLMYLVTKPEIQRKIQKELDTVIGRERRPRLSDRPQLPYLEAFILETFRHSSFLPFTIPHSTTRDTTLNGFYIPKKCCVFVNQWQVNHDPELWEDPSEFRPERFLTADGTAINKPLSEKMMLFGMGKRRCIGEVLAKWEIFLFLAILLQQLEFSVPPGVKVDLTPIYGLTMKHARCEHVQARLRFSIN

For the next assay, the target named is Cytochrome P450 2D6 (Homo sapiens, UniProt P10635).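 Further: CYP2D6 member of a cytochrome P450 panel assay.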
Assay [13] can be described thus: HEp-2 cell cytotoxicity, dose response, cytotoxicity control for RSV inhibitor project, HTS (AID 2410). Format: functional. As to conditions: human respiratory syncytial virus.
In another assay the target is Cytochrome P450 3A4 (Homo sapiens, UniProt P08684).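 Further: CYP3A4 tested as one member of a cytochrome P450 panel screen.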

In general, EC50 refers to the concentration needed to bring the measured effect to its halfway point. What is called IC50 is the midpoint of a concentration-inhibition curve. A word on the AC50: it is the concentration at which the activity in the assay is half-maximal. The CC50 is the concentration at which the toxic effect on the cells reaches its halfway point.

Active and inactive are the calls of the source. For most assays here, no stated cut-off is given here; in the data, actives have a measured EC50 and inactives only a lower limit.

Chain of Cytochrome P450 3A4 (P08684 whole entry): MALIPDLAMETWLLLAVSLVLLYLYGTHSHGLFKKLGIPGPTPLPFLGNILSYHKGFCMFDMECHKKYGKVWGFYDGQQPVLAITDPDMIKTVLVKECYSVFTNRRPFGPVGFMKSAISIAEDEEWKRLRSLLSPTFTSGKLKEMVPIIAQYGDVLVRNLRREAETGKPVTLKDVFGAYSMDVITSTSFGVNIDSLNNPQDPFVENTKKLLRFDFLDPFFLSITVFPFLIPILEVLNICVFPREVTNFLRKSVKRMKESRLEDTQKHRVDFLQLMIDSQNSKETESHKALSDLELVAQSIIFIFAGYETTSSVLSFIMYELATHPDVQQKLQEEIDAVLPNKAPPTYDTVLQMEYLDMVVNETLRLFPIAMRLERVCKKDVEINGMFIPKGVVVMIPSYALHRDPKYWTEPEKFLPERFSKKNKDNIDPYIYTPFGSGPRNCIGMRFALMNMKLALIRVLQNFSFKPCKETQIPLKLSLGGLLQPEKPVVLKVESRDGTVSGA
Chain of Cytochrome P450 2D6 (P10635 whole entry): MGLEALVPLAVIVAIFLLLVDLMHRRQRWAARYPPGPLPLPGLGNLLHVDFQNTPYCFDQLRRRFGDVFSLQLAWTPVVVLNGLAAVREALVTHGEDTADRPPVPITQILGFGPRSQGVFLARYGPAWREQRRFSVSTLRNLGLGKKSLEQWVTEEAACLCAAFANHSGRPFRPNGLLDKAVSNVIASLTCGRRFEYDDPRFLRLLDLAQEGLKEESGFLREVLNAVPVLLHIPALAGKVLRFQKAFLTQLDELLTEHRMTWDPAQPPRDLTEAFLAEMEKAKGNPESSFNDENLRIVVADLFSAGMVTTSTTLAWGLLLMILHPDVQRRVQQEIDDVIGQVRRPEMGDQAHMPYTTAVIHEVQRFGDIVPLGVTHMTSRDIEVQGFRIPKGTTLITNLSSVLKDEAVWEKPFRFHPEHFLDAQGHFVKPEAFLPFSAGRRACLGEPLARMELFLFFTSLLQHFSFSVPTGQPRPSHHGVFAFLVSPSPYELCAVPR
Chain of Luciferin 4-monooxygenase (P08659 whole entry): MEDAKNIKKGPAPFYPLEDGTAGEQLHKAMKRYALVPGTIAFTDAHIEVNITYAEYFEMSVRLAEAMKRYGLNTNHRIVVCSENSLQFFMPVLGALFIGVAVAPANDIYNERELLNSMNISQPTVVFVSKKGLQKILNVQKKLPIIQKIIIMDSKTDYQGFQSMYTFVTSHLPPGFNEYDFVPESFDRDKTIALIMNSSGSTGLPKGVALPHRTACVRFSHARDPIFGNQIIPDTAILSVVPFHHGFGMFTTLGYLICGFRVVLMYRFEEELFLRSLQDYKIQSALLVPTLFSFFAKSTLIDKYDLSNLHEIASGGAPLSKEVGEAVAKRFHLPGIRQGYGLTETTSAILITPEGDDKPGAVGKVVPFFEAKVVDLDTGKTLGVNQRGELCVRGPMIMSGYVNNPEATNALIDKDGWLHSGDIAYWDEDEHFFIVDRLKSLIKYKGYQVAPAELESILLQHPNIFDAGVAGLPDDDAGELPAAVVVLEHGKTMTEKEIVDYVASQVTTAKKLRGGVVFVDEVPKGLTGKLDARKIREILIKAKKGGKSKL

Turning to `CN(C)c1ccc2nc3ccc(N(C)C)cc3[s+]c2c1` [METHYLENE BLUE ANHYDROUS], the EC50 is 5.46 µM (inconclusive) in assay [1] and 11.1 µM (inconclusive) in assay [2].

Regarding `CCOC(=O)CN1N=C(/C=C/c2ccc(C(C)C)cc2)CCC1=O`, the IC50 in assay [3] was 9.2 µM (active).

For the molecule `O=C(O)COc1cccc(/C=C2/SC(=S)N(Cc3ccccc3)C2=O)c1`, the EC50 is > 150 µM (inconclusive) in the assay on BJ [4]; > 150 µM (not active) in the assay on BJ [6]; > 150 µM (not active) in the assay on BJ [7]; > 150 µM (not active) in [8]; 10.1 µM (active) at Protein RecA. Also, the AC50 in assay [5] was 9.8 µM (active).

For `CCC1CCCCN1C(=O)c1ccc(OC2CCN(C(=O)C3CC3)CC2)cc1` (stereo unspecified), the half-maximal inhibitory concentration (IC50) in assay [3] is > 50 µM (not active).

As for `COc1cc(O)oc1/C=N/c1ccc(C(=O)O)cc1`, the EC50 was > 150 µM (inconclusive) in the assay with BJ [4]; 10.7 µM (active) in [9]; 2.74 µM (active) in assay [10]; > 195 µM (not active) in assay [11]; 13.7 µM (active) in the assay with BJ [6]; 9.97 µM (active) in the assay with BJ [7]. In addition, the EC50 in assay [8] is 10.7 µM (active).

For `COc1ccc(/C=C2\SC(=S)N(CC(=O)OCC(=O)Nc3cc(Cl)cc(Cl)c3)C2=O)cc1`, the half-maximal effective concentration (EC50) (with BJ [4]; in the assay on BJ [6]; in the assay with BJ [7]; in assay [8]) was > 150 µM (not active) throughout.

For the molecule `C/C(CC(=O)Nc1ccccn1)=N\NC(=O)c1ccccc1O`, the EC50 in [1] was 12.7 µM (active); in assay [12] it was 14 µM (active); in assay [2], 10.9 µM (active).

With `CC(C)Cn1c(N)c(C(=O)COC(=O)c2ccccc2F)c(=O)n(C)c1=O`, the IC50 in [3] is reported as > 50 µM (not active).

For `O=Cc1ccc(-n2nncc2-c2ccc([N+](=O)[O-])cc2)cc1`, the IC50 in assay [3] was 12.6 µM (not active).

Regarding `CCOc1ccc(NC(=S)NC(=O)/C=C/c2ccc(OC)cc2)c([N+](=O)[O-])c1`, the concentration for half-maximal inhibition (IC50) in assay [3] is listed as 17.2 µM (not active).

Take `CCCCNc1nc(NC)nc(Cl)c1SC`: the EC50 in assay [1], in assay [12] and in [2] was > 120 µM (not active) throughout.

For the molecule `Cc1ccc(SC[C@H](Cc2ccccc2)N2CCN(CCc3ccccc3)CCC2=O)cc1`, the IC50 in assay [3] is 5.01 µM (not active).

Consider `CCOC(=O)c1c(NC(=O)CNC2CCCCC2)sc(C)c1C`, for which the IC50 in assay [3] is 6.04 µM (not active).

Take `COc1ccc(C2CC(C(F)(F)F)n3ncc(C(=O)Nc4cccc(O)c4)c3N2)cc1OC` (stereo unspecified): the EC50 was 54.7 µM (active) in [1], 20.3 µM (active) in [12] and 23.2 µM (active) in assay [2].

In the case of `CCCN1CCC(=NNc2ccc(S(=O)(=O)N3CCOCC3)cc2[N+](=O)[O-])CC1`, the EC50 in assay [1] was 6.57 µM (active); in assay [12] it was 11.1 µM (inconclusive); in assay [2], 13.8 µM (active).

As to `CCn1cnc2c([N+](=O)[O-])c(NS(=O)(=O)c3ccc(C)cc3)ccc21`, the EC50 in the assay on BJ [4] is > 150 µM (inconclusive); in the assay on BJ [6], > 150 µM (not active); in the assay on BJ [7], > 150 µM (not active); in assay [8] it was > 150 µM (not active).

`O=C(Nc1cnn(Cc2ccc(F)cc2)c1)c1cc2nc(-c3ccco3)cc(C(F)(F)F)n2n1`: the IC50 in assay [3] was 0.777 µM (not active).

In the case of `CCC(C)C(=O)Nc1ccc([N+](=O)[O-])cc1OC` (stereo unspecified), the half-maximal inhibitory concentration (IC50) in assay [3] is recorded as 16.1 µM (not active).

For `CCOC(=O)c1c(C)nc2sc3c(=O)n(-c4ccc(OC)cc4)cnc3c2c1-c1ccc(OC)cc1`, the EC50 was 21.1 µM (active) in assay [1], 12.9 µM (active) in [12] and > 120 µM (not active) in [2].

Regarding `O=C(NC12CC3CC(CC(C3)C1)C2)c1ccc(COc2ccc(Cl)cc2[N+](=O)[O-])o1`, the AC50 on Cytochrome P450 1A2 was 14.1 µM (inconclusive); on Cytochrome P450 2D6, 28.2 µM (inconclusive); at Cytochrome P450 3A4 it was 15.8 µM (inconclusive). Moreover, the CC50 in assay [13] is 32.4 µM (active).
